# Target: T1, carbonic anhydrase II (CAII) (Homo sapiens, UniProt P00918)
# T1 construct: gene CA2
# Test: Wilbur-Anderson electrometric CO2 hydration assay with recombinant human CAII
# Type: biochemical
smiles,measurement,value
CC(=O)Nc1ccc(CC(=O)O)cc1 [actarit],IC50,422 nM

# From PMC7699199, “Identification and Validation of Carbonic Anhydrase II as the First Target of the Anti-Inflammatory Drug Actarit” (Biomolecules, 2020)
